Read-outs that look alike come from different tables or passages of the source.
Tests used:
[1] = molecular target: T1, human GLP-1 receptor (hGLP-1R) (Homo sapiens, UniProt P43220); experiment: [125I]-GLP-1 binding, SPA with membranes of HEK293 cells expressing hGLP-1R; details: human GLP-1R; geometric mean (SEM, n); read-out: Binding Affinity Ki, nM (SEM, n) hGLP-1R
T1 construct: expressed in transfected cells; crude membranes

[2] = molecular target: T2, human GIP receptor (hGIPR) (Homo sapiens, UniProt P48546); experiment: [125I]-GIP binding, SPA with membranes of CHO cells expressing hGIPR; details: human GIPR; geometric mean (SEM, n); read-out: Binding Affinity Ki, nM (SEM, n) hGIPR
T2 construct: expressed in transfected cells; crude membranes
T2 sequence (P48546 22-466): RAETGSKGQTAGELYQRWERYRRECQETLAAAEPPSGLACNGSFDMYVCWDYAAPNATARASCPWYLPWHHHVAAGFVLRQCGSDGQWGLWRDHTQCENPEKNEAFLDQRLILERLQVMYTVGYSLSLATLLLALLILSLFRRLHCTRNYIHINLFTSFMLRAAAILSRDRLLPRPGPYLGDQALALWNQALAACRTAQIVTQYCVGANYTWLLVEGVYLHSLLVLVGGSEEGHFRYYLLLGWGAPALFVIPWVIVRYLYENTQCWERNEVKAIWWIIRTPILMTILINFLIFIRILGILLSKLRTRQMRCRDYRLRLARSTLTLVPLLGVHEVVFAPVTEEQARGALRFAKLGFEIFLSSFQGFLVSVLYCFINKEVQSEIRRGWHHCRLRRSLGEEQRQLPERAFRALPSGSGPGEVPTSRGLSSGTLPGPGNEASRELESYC

hGIPR = molecular target: T3, hGIPR (Homo sapiens, UniProt P48546); experiment: Functional cAMP formation (HTRF) in HEK-293 clonal cells expressing hGIPR, 0.1% bovine casein, without or with 1.0% human serum albumin; format: cell-based; details: for EC50: geometric mean, read-out: hGIPR EC50, nM (SEM, n); for Emax: read-out: hGIPR Emax, % ± SEM
T3 construct: expressed in transfected cells
T3 sequence (P48546 22-466): T2 sequence (P48546 22-466)
How it was run: (§1)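 Cells were stimulated with peptide for 30 min at 37° C, then lysed in buffer carrying cAMP-d2 and anti-cAMP Eu3+-cryptate for a competitive HTRF read after at least 60 min at room temperature. The 665/620 nm ratio was converted to nM cAMP against a standard curve.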

hGCGR = molecular target: T4, hGCGR (Homo sapiens, UniProt P47871); experiment: Functional cAMP formation (HTRF) in HEK-293 clonal cells expressing hGCGR, 0.1% bovine casein, without or with 1.0% human serum albumin; format: cell-based; details: geometric mean, read-out: hGCGR EC50, nM (SEM, n)
T4 construct: expressed in transfected cells
T4 sequence (P47871 26-477): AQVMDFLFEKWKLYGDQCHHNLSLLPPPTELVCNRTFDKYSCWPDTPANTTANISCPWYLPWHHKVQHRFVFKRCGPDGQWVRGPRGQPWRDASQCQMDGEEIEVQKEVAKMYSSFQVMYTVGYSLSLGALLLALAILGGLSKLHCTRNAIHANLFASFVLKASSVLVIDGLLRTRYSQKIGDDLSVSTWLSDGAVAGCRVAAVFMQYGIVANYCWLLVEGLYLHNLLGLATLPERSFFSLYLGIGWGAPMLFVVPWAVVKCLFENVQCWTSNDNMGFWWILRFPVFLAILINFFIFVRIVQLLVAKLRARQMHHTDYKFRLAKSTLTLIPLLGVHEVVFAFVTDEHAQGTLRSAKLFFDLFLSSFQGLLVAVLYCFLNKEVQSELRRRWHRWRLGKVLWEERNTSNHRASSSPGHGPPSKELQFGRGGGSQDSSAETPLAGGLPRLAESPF
How it was run: as §1

hGLP-1R = hGLP-1R (Homo sapiens, UniProt P43220); experiment: Functional cAMP formation (HTRF) in HEK-293 clonal cells expressing hGLP-1R, 0.1% bovine casein, without or with 1.0% human serum albumin; format: cell-based; set-up: expressed in transfected cells; details: 0.1% bovine casein and 1.0% human serum albumin, 37° C.; geometric mean; read-out: hGLP-1R EC50, nM (SEM, n)
Chain of hGLP-1R (P43220 24-463): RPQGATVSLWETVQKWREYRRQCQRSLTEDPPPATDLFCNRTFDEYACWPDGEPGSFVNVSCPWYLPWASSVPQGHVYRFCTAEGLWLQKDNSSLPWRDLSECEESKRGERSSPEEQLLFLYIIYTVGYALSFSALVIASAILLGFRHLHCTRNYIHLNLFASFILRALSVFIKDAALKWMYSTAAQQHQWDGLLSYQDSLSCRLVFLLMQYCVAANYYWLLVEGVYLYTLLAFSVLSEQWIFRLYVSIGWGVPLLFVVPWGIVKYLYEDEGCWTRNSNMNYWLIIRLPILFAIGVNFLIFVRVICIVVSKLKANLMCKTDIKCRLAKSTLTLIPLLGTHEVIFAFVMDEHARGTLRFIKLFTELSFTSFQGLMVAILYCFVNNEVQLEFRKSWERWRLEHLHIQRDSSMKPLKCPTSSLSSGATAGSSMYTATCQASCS
How it was run: as §1

[3] = 0.1% bovine casein and 1.0% human serum albumin, 37° C.
[4] = HEK293, 0.1% bovine casein and 1.0% human serum albumin, 37° C., percent of maximal response to GIP(1-42)NH2
[5] = cAMP, incubated at 37° C., 0.1% bovine casein (no human serum albumin)

T1 sequence (P43220 24-463): as above

| Compound | Ki [1] [nM] | Ki [2] [nM] | EC50 (hGIPR; [3]) [nM] | Emax (hGIPR; [4]) [%] | Emax (hGIPR; HEK293, percent of maximal response to GIP(1-42)NH2, 37° C., 0.1% bovine casein, arithmetic mean) [%] | EC50 (hGIPR; [5]) [nM] | EC50 (hGCGR; [3]) [nM] | EC50 (hGCGR; [5]) [nM] | EC50 (hGLP-1R) [nM] |
| --- | --- | --- | --- | --- | --- | --- | --- | --- | --- |
| CC[C@H](C)[C@H](NC(=O)[C@H](CC(C)C)NC(=O)[C@](C)(Cc1ccc(O)cc1)NC(=O)[C@@H](CCC(=O)O)NC(=O)[C@@H](NC(=O)[C@H](Cc1ccccc1)NC(=O)[C@H](CCC(=O)O)NC(=O)C(C)(C)NC(=O)[C@H](CCC(N)=O)NC(=O)[C@H](C)NC(=O)[C@H](CCCCNC(=O)COCCOCCNC(=O)COCCOCCNC(=O)CC[C@H](NC(=O)CCCCCCCCCCCCC(=O)O)C(=O)O)NC(=O)[C@H](CCCN)NC(=O)[C@H](CC(=O)O)NC(=O)[C@H](CC(C)C)NC(=O)[C@](C)(CC(C)C)NC(=O)[C@@H](NC(=O)C(C)(C)NC(=O)[C@H](Cc1ccc(O)cc1)NC(=O)[C@H](CC(=O)O)NC(=O)[C@H](CO)NC(=O)[C@@H](NC(=O)[C@](C)(Cc1ccccc1F)NC(=O)[C@@H](NC(=O)CNC(=O)[C@H](CCC(=O)O)NC(=O)C(C)(C)NC(=O)[C@@H](N)Cc1ccc(O)cc1)[C@@H](C)O)[C@@H](C)O)[C@@H](C)CC)[C@@H](C)CC)C(=O)N[C@@H](CCC(=O)O)C(=O)NCC(=O)NCC(=O)N[C@@H](CCCCNC(=O)COCCOCCNC(=O)COCCOCCNC(=O)CC[C@H](NC(=O)CCCCCCCCCCCCC(=O)O)C(=O)O)C(=O)N[C@@H](CO)C(=O)N[C@@H](CO)C(=O)NCC(=O)N[C@@H](C)C(=O)N1CCC[C@H]1C(=O)N1CCC[C@H]1C(=O)N1CCC[C@H]1C(=O)N[C@@H](CO)C(N)=O [Example 50] | 0.876 | 0.0296 | 1.81 | 91.4 ± 4.2 | 94.7 ± 1.77 | 0.0168 | > 9950 | > 9950 | – |
| CCCCCCCCCCCCCC(=O)N[C@@H](CCC(=O)NCCOCCOCC(=O)NCCOCCOCC(=O)NCCCC[C@H](NC(=O)CNC(=O)CNC(=O)[C@H](CCC(=O)O)NC(=O)[C@@H](NC(=O)[C@H](CC(C)C)NC(=O)[C@](C)(Cc1ccc(O)cc1)NC(=O)[C@@H](CCC(=O)O)NC(=O)[C@@H](NC(=O)[C@H](Cc1ccccc1)NC(=O)[C@H](CCC(=O)O)NC(=O)C(C)(C)NC(=O)[C@H](CCC(N)=O)NC(=O)[C@H](C)NC(=O)[C@H](CCCCNC(=O)COCCOCCNC(=O)COCCOCCNC(=O)CC[C@H](NC(=O)CCCCCCCCCCCCC)C(=O)O)NC(=O)[C@H](CCCN)NC(=O)[C@H](CC(=O)O)NC(=O)[C@H](CC(C)C)NC(=O)[C@](C)(CC(C)C)NC(=O)[C@@H](NC(=O)[C@H](CO)NC(=O)[C@H](Cc1ccncc1)NC(=O)[C@H](CC(=O)O)NC(=O)[C@H](CO)NC(=O)[C@@H](NC(=O)[C@](C)(Cc1ccccc1F)NC(=O)[C@@H](NC(=O)CNC(=O)[C@H](CCC(=O)O)NC(=O)C(C)(C)NC(=O)[C@@H](N)Cc1ccc(O)cc1)[C@@H](C)O)[C@@H](C)O)[C@@H](C)CC)[C@@H](C)CC)[C@@H](C)CC)C(=O)N[C@@H](CO)C(=O)N[C@@H](CO)C(=O)NCC(=O)N[C@@H](C)C(=O)N1CCC[C@H]1C(=O)N1CCC[C@H]1C(=O)N1CCC[C@H]1C(=O)N[C@@H](CO)C(N)=O)C(=O)O [Example 8] | – | 0.024 | 0.635 | 91.3 ± 3.11 | – | – | > 9950 | > 9950 | 8 |
